This passage reports remaining activity results from patent US20240246942A1, “KINASE INHIBITORS FOR THE TREATMENT OF NEURODEGENERATIVE DISEASES” (priority 2020, published 2024).

What all share (test): biochemical
For test [1], the target named is T1, panel of 374 wild-type kinases (Homo sapiens, UniProt P28482).
T1 construct: purchased Reaction Biology Corporation
The following applies: read-out: % Enzyme Activity (relative to DMSO controls), ERK2/MAPK1.

For test [2], the target named is T2, panel of 374 wild-type kinases (Homo sapiens, UniProt Q32MK0).
T2 construct: purchased Reaction Biology Corporation
T2 sequence (Q32MK0 1-819): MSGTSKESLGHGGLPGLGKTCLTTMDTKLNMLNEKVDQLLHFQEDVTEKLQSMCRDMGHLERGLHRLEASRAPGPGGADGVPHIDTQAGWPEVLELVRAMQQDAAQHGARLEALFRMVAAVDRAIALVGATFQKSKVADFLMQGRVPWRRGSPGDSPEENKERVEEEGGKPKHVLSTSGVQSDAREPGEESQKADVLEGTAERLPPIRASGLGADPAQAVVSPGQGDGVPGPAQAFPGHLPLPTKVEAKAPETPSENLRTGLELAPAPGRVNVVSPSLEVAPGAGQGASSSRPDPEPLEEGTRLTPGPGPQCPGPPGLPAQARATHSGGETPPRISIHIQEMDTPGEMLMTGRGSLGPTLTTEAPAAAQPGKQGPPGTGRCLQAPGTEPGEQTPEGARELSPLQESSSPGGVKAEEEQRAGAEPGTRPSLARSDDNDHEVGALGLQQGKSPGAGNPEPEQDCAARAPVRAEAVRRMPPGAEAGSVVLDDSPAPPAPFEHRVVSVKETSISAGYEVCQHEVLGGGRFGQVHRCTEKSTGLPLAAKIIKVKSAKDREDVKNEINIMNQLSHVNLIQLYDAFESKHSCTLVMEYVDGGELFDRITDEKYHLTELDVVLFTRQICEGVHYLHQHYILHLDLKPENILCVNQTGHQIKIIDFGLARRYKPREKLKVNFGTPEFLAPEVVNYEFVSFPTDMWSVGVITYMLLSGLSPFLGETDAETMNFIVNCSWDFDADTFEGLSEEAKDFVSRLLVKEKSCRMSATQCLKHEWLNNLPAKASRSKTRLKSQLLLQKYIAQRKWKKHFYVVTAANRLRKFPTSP
Conditions: read-out: % Enzyme Activity (relative to DMSO controls), MYLK3.

Test [3] has as its target T3, panel of 374 wild-type kinases (Homo sapiens, UniProt Q96PY6).
T3 construct: purchased Reaction Biology Corporation
T3 sequence (Q96PY6 1-1258): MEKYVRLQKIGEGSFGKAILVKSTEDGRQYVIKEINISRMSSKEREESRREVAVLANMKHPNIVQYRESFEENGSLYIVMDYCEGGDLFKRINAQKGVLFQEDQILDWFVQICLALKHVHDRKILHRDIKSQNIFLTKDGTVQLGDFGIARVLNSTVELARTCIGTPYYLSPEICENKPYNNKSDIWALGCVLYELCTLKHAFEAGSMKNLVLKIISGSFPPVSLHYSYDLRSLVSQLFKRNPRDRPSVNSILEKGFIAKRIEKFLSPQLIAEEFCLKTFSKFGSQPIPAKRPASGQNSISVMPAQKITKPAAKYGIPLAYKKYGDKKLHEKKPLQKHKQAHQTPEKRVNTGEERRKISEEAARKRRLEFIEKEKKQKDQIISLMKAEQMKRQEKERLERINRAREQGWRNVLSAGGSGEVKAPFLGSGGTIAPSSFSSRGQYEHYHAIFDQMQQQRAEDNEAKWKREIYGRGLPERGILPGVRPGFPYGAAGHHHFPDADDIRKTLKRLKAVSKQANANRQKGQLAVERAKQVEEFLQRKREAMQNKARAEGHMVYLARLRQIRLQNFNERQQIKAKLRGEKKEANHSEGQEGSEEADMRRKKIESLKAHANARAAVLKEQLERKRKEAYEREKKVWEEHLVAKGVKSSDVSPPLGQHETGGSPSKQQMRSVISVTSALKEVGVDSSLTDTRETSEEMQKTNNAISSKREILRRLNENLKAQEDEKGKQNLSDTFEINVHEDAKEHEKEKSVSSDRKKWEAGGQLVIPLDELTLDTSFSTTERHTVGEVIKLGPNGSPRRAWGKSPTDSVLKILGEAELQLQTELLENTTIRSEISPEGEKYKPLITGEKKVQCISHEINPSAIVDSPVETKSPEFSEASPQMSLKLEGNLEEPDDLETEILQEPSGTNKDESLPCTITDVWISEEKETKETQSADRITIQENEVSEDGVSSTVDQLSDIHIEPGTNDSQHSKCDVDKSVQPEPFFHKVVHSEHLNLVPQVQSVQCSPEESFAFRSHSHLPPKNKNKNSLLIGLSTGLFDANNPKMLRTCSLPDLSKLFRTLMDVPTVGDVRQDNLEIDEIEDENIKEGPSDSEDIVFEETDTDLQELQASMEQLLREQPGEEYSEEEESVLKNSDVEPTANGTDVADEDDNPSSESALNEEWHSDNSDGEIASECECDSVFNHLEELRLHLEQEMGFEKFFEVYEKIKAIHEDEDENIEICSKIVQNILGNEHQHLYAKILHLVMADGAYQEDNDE
The following applies: read-out: % Enzyme Activity (relative to DMSO controls), NEK1.

The target of test [4] is T4, panel of 374 wild-type kinases (Homo sapiens, UniProt Q9NQU5).
T4 construct: purchased Reaction Biology Corporation
T4 sequence (Q9NQU5 whole entry): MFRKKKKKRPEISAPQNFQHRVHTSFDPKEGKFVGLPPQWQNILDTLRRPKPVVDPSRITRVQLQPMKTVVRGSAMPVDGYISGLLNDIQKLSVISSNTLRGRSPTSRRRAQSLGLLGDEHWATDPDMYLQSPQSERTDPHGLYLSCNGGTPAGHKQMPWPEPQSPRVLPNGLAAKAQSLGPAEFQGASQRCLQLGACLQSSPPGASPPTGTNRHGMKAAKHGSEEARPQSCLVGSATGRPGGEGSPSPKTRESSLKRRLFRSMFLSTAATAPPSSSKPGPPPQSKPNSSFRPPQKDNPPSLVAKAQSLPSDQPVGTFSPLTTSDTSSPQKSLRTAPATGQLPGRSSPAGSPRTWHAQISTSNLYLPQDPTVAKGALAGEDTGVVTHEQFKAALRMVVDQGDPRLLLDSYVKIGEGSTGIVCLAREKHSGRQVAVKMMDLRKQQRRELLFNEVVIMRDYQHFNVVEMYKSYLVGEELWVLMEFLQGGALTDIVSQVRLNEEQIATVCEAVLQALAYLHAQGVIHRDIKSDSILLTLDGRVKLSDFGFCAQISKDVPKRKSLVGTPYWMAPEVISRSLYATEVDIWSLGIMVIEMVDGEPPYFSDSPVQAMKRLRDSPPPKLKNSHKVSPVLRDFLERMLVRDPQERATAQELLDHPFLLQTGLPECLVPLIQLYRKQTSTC
The following applies: read-out: % Enzyme Activity (relative to DMSO controls), kinase PAK6.

Test [5] concerns the target T5, panel of 374 wild-type kinases (Homo sapiens, UniProt Q9UPE1).
T5 construct: purchased Reaction Biology Corporation
Conditions: read-out: % Enzyme Activity (relative to DMSO controls), MSSK1/STK23.

For test [6], the target named is T6, panel of 374 wild-type kinases (Homo sapiens, UniProt Q9Y243).
T6 construct: purchased Reaction Biology Corporation
T6 sequence (Q9Y243 whole entry): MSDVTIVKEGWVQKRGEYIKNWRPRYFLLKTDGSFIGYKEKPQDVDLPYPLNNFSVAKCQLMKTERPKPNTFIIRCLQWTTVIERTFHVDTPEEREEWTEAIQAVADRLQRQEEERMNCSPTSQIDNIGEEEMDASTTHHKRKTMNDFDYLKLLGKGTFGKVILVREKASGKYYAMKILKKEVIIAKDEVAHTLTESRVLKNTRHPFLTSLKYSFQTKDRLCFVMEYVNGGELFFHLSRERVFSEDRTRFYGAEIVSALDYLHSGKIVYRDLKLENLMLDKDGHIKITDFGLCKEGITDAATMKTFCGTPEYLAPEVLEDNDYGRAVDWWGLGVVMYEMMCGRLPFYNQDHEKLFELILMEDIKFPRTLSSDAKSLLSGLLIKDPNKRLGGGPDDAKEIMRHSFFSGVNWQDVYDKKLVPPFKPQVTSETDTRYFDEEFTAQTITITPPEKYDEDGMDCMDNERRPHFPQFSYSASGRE
The following applies: read-out: % Enzyme Activity (relative to DMSO controls), AKT3.

T1 sequence (P28482 whole entry): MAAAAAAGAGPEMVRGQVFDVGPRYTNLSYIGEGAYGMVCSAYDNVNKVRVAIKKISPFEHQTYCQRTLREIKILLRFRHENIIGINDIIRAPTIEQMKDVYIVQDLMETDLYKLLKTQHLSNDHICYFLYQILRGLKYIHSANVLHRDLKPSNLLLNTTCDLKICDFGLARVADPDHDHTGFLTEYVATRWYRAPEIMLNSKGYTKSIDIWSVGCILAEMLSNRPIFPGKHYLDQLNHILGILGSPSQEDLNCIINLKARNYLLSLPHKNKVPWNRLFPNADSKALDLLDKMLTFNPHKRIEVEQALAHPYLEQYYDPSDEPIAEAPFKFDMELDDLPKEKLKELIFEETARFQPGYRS
T5 sequence (Q9UPE1 whole entry): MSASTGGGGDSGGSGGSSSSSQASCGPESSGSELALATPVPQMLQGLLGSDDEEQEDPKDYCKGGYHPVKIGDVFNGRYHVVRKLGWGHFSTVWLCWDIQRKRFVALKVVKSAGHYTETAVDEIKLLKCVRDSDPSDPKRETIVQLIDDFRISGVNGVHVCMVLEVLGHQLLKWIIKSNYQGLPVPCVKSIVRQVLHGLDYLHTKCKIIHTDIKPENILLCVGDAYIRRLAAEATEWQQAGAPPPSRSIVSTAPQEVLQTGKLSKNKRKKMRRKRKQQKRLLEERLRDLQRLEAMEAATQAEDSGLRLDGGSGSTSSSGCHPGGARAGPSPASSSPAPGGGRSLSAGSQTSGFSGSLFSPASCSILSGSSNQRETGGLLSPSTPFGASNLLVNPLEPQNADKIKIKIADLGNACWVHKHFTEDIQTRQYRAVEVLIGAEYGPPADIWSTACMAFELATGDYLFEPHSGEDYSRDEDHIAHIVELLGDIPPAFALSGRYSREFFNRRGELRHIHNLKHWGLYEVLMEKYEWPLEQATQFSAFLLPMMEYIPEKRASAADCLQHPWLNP

Consider `O=C(Nc1cnn(-c2csc(C(=O)NC3COC3)c2)c1)Nc1ccccc1Cl` [Compound 17, 4-(4-(3-(2-chlorophenyl)ureido)-1H-pyrazol-1-yl)-N-(oxetan-3-yl)thiophene-2-carboxamide], for which the remaining activity at 5 µM in test [1] was found to be 110%; in test [2], 95.1%; in test [3], 115%; in test [4], 131%; in test [5], 91.9%; in test [6], 87.3%.
Turning to `O=C(Nc1cnn(-c2csc(C(=O)NC3COC3)c2)c1)Nc1c(F)cccc1Cl` [Compound 25, 4-(4-(3-(2-chloro-6-fluorophenyl)ureido)-1H-pyrazol-1-yl)-N-(oxetan-3-yl)thiophene-2-carboxamide], the remaining activity at 5 µM in test [1] came to 85.9%; in test [2], 102%; in test [3], 77.2%; in test [4], 92.9%; in test [5], 89.8%; in test [6], 97.6%.
`Cc1sc(C(=O)NC2COC2)cc1-n1cc(NC(=O)Nc2c(F)cccc2Cl)cn1` [Compound 27, 4-(4-(3-(2-chloro-6-fluorophenyl)ureido)-1H-pyrazol-1-yl)-5-methyl-N-(oxetan-3-yl)thiophene-2-carboxamide]: the remaining activity at 10 µM in test [1] (10 uM) was found to be 90.8%; in test [2] (10 uM) it was 112%; in test [3] (10 uM), 90.4%; in test [4] (10 uM) it was 99.9%; in test [5] (10 uM) it was 98.9%; in test [6] (10 uM) it was 94.8%.
